In patent US20150140043A1, “IMMUNOMODULATORY METHODS USING NOTCH AGONISTS” (INSTITUT NATIONAL DE LA SANTE DE LA RECHERCHE MEDICAL …, priority 2012, published 2015):

B1: DL-1: recombinant NOTCH ligand Delta-like 1, used coated as DL-1-Fc (SEQ ID NO: 8) (protein, listed as Homo sapiens)
chain: MGSRCALALAVLSALLCQVWSSGVFELKLQEFVNKKGLLGNRNCCRGGAGPPPCACRTFFRVCLKHYQASVSPEPPCTYGSAVTPVLGVDSFSLPDGGGADSAFSNPIRFPFGFTWPGTFSLIIEALHTDSPDDLATENPERLISRLATQRHLTVGEEWSQDLHSSGRTDLKYSYRFVCDEHYYGEGCSVFCRPRDDAFGHFTCGERGEKVCNPGWKGPYCTEPICLPGCDEQHGFCDKPGECKCRVGWQGRYCDECIRYPGCLHGTCQQPWQCNCQEGWGGLFCNQDLNYCTHHKPCKNGATCTNTGQGSYTCSCRPGYTGATCELGIDECDPSPCKNGGSCTDLENSYSCTCPPGFYGKICELSAMTCADGPCFNGGRCSDSPDGGYSCRCPVGYSGFNCEKKIDYCSSSPCSNGAKCVDLGDAYLCRCQAGFSGRHCDDNVDDCASSPCANGGTCRDGVNDFSCTCPPGYTGRNCSAPVSRCEHAPCHNGATCHERGHRYVCECARGYGGPNCQFLLPELPPGPAVVDLTEKLEGQGGPFPWVAVCAGVILVLMLLLGCAAVVVCVRLRLQKHRPPADPCRGETETMNNLANCQREKDISVSIIGATQIKNTNKKADFHGDHSADKNGFKARYPAVDYNLVQDLKGDDTAVRDAHSKRDTKCQPQGSSGEEKGTPTTLRGGEASERKRPDSGCSTSKDTKYQSVYVISEEKDECVIATEV

Assays:
Assay type in all cases: cell-based, human
[1] = system: CD4+CD25- T cell proliferation; assay: Sensitizing assay: cells pre-incubated with NOTCH ligands, washed, then cultured with anti-CD3 with or without Treg; details: for Percentage of inhibition of cell proliferation by Treg: CD4+CD25- T cells pre-exposed overnight to ligand (5 μg/ml), Treg ratio 1:8, 5 days anti-CD3, mean of 4 experiments; for Effect of exposure of Treg to ligand on Treg capacity to suppress CD4+CD25- proliferation: Treg exposed to ligand, anti-CD3 mAbs, data not shown
Protocol: FIG. 1: NOTCH signalling is involved in Treg mediated inhibition of anti-CD3 stimulated CD4^+CD25^− T cell proliferation • A) Various ratio of CD4^+CD25^− T cells and CD4^+CD25^high T cells were cultured for 5 days in coated wells with anti-CD3 (1 μg/ml) in the presence or not of inhibitor of g-secretase (GSI 10 μM). Percentages of inhibition were calculated from the raw data using the equations: 1—(mean cpm of co-culture wells divided by mean cpm of CD4^+CD25^− cells cultured alone)×100. The data represent the mean±SEM and are representative of 5 independent experiments. * indicates P<0.05. • B) CD4^+CD25^−T cells were cultured for 18 hours in coated wells with anti-CD3 and NOTCH ligands (5 μg/ml) or IgG control (5 μg/ml). Then, T cells were washed and incubated for 5 days in coated wells with anti-CD3 in the absence or presence of Treg at ratio 1:8. The data represent the mean±SEM of inhibition of T cell proliferation of 5 independent experiments.
(§1) Peripheral blood mononuclear cells were separated by Ficoll-Hypaque centrifugation (Amersham Biosciences) from buffy coats obtained from healthy blood donors (EFS, Créteil). CD4^+ CD25^− T cells and CD4^+CD25^high T cells were isolated using a CD4^+ T cell enrichment column and a human CD4^+CD25^+ Treg isolation kit purchased from Miltenyi Biotec. CD4^+CD25^− cells and CD4^+CD25^+ cells were enriched to greater than 95% purity. Cells were plated in media at a concentration of 1.25×10^5 to 5×10^5 cells per ml in a 96-well round-bottom plates coated with 1 μg/ml of anti-CD3 (UCHT1) and 5 μg/ml of NOTCH Ligand (DL-1-Fc, DL-4-Fc and Jagged-1-Fc are a generous Gift from Dr. Sakano).
A total of 2.5×10^4 CD4^+CD25^− T cells were cultured with various ratios of CD4^+CD25^high cells and 1 μg/ml of anti-CD3 for 5 days, in the presence or absence of 10 μm of the gamma-secretase inhibitor Compound E. A total of […] [^3H] thymidine (Amersham Pharmacia) was added to the wells during the last 16 hours of culture. The cells were then harvested and assessed for [^3H] thymidine incorporation using a liquid scintillation counter. Results were expressed as mean cpm of quadriplicate culture wells.
(§2) Percentage of inhibition was calculated as follows: 1−(mean cpm of co-culture wells divided by mean cpm of CD4^+CD25^− cells cultured alone)×100.
In sensitizing assays CD4^+CD25^− and CD4^+CD25^high were pre-incubated during 16 hours on coated NOTCH Ligand. Cells were also collected, washed and incubated alone or with Treg and stimulated as described above. Some experiments were performed in the presence of anti-TGF-β or IgG control (2.5 μg/ml). […]

[2] = system: CD4+CD25- T cell proliferation; assay: Coculture of effector T cells and Treg at low ratio on immobilized NOTCH ligands, with or without anti-TGF-β; parameters: Mean inhibition of T cell proliferation / Mean inhibition of T cell proliferation in the presence of anti-TGF-β mAbs: unit of the concentration uncertain
Protocol: FIG. 2: NOTCH suppresses the proliferation of CD4^+CD25^− T cells through TGF-β • A) CD4^+CD25^−T cells were cultured for 5 days in coated wells with anti-CD3 and NOTCH ligands (5 μg/ml) or IgG control (5 μg/ml) in the presence of Treg at ratio 1:16. Anti-TGF-β or IgG control mAbs (2.5 μg/ml) were added at the beginning of the co-culture. The data represent the mean±SEM. * indicates P<0.05. • B) CD4^+CD25^−T cells were cultured for 5 days in coated wells with anti-CD3 and NOTCH ligands (5 μg/ml) or IgG control (5 μg/ml). Low dose of TGF-β (0.1 ng/ml) was added. The data represent the mean±SEM.
as §1, §2
In sensitizing assays CD4^+CD25^− and CD4^+CD25^high were pre-incubated during 16 hours on coated NOTCH Ligand. Cells were also collected, washed and incubated alone or with Treg and stimulated as described above. Some experiments were performed in the presence of anti-TGF-β or IgG control (2.5 μg/ml).
The implication of NOTCH1 on effector T cell responses in the presence of Treg through a TGF-β signalling mechanism has not yet been elucidated. To test this, a coculture experiments of effector T cells and Treg at a low ratio (ratio 1:16) in the presence of immobilized NOTCH ligands DL1, DL4 and Jagged-1 or Ig controls at […] was performed. […]

[3] = system: TGF-βRII protein expression; assay: Surface staining / flow cytometry of TGF-βRII protein on CD4+CD25- T cells; details: CD4+CD25- T cells incubated 48 hours with ligand
Protocol: FIG. 3: TGF-βRII expression on effector T cells after NOTCH ligands exposure • A) CD4^+CD25^−T cells were purified using Miltenyi microbeads from PBMC and cultured for 3 hours in coated wells with anti-CD3 (200 ng/ml) and NOTCH ligands (5 μg/ml) or IgG control (5 μg/ml). Quantitative real-time PCR was performed to measure the transcripts levels of TGF-βRII. Data shown are mean±SEM and are representative of 4 independent experiments. * indicates P<0.05. • B) Protein levels of TGF-βRII in CD4^+CD25^−T cells stimulated to DL-1, DL-4 and Jagged-1 using FACS analysis. Mean of fluorescence are represented±SEM. * indicates P<0.05.
For surface staining, the cells were harvested, washed twice and resuspended in 1% FCS buffer. The cells were stained with mAbs for CD4 (Beckman Coulter), TGF-βRII (R&D) as per manufacturer's instructions for 20 min at 4° C. Cells were then analyzed by flow cytometry using FACScalibur™ and CellQuest™ software (Becton Dickinson, San Jose, Calif., USA).
TGF-βRII protein expression was assessed by flow cytometry. In these experiments, effector CD4^+CD25^− T cells were isolated and incubated for 48 hours in the presence of NOTCH ligands or IgG control.

Row | Molecule | Percentage of inhibition of cell proliferation by Treg [1] | Effect of exposure of Treg to ligand on Treg capacity to suppress CD4+CD25- proliferation [1] | Mean inhibition of T cell proliferation in the presence of anti-TGF-β mAbs ([2]; coculture with Treg at ratio 1:16, immobilized ligand at 5 µg/mL, anti-TGF-β 2.5 µg/mL added at the beginning of the culture) | Mean inhibition of T cell proliferation ([2]; coculture with Treg at ratio 1:16, immobilized ligand at 5 µg/mL, no anti-TGF-β) | TGF-βRII protein expression (MFI) [3] | Effect of anti-TGF-β on coculture of Treg and ligand-treated effector T cells ([2]; Treg ratio 1:16, anti-TGF-β 2.5 μg/ml)
1 | Jagged-1: recombinant NOTCH ligand Jagged-1, used coated as Jagged-1-Fc (SEQ ID NO: 5) | 65% | did not modify the Treg capacity | 19.3% | 65% | 130 | –
2 | B1 | 64.8% | did not modify the Treg capacity | – | – | 85 | did not affect
